# Assay results taken from patent US10722514B2 (FLX Bio, Inc., priority 2017, dated 2020).
# Where a name gives a salt, the structure may show the parent alone.
# Target: T1, recombinant full-length USP7 (Homo sapiens, UniProt Q93009)
# T1 construct: A 25 μl reaction volume containing recombinant full-length USP7 (62 pM)
# Assay: USP7-mediated ubiquitin-rhodamine cleavage assay
# Type: biochemical
# Conditions: recombinant full-length USP7 62 pM; ubiquitin-rhodamine 100 nM; 30-minute incubation with compound, 1 hour reaction at room temperature; read-out: Potency: USP7 IC50
# In short: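 Enzyme 62 pM; HEPES pH 7.3/150 mM NaCl/1 mM TCEP/125 μg/ml BSA; 1% DMSO; 30 min cpd preinc RT; Ub-rhodamine 100 nM, 1 h RT, dark; acetic acid stop; fluorescence; IC50 4-param fit.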
# T1 sequence (Q93009 whole entry): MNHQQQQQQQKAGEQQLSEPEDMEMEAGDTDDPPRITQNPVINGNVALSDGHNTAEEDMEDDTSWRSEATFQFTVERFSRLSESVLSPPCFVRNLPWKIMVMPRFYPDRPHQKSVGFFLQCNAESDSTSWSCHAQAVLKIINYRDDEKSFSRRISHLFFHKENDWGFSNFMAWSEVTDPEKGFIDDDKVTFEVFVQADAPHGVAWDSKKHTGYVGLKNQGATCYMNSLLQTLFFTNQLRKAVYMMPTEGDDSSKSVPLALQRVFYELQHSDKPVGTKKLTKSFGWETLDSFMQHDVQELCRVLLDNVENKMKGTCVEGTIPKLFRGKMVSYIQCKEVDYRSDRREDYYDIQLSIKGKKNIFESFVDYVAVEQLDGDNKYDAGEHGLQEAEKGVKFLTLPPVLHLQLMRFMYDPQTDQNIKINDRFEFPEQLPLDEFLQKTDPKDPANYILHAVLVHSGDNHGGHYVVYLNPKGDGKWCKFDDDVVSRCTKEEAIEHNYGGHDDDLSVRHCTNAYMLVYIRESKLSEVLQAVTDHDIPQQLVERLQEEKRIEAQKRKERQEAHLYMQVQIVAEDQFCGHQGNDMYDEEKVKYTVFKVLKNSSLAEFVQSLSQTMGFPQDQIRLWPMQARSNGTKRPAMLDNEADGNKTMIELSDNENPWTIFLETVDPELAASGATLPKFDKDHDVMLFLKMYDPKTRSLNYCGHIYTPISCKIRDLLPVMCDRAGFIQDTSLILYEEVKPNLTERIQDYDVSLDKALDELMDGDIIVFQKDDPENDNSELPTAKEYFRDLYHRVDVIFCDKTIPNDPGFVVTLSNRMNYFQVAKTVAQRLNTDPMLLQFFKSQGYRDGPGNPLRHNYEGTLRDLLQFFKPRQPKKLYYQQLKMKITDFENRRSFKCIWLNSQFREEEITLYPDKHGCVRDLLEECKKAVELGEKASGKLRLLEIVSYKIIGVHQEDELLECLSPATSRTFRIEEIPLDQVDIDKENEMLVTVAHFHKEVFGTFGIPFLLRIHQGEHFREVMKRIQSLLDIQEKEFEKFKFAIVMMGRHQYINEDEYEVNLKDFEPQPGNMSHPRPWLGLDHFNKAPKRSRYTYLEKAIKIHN
row,Structure (SMILES),IC50
1,"Cc1cc(Cl)cc(-c2ccnc3cc(CN4C(=O)CC5(CCCC5)CC4=O)sc23)c1OC1CCNCC1 [Example 236, 8-((7-(5-Chloro-3-methyl-2-(piperidin-4-yloxy)phenyl)thieno[3,2-b]pyridin-2-yl)methyl)-8-azaspiro[4.5]decane-7,9-dione]",< 1000 nM
2,"Cc1cc(Cl)cc(-c2ncnc3cc(CN4C(=O)C5C(C4=O)C5(C)C)sc23)c1O[C@@H]1CCNC[C@@H]1F (stereo partly drawn) [Example 377, 3-[[4-[5-chloro-2-[[(3S,4R)-3-fluoro-4-piperidyl]oxy]-3-methyl-phenyl]thieno[3,2-d]pyrimidin-6-yl]methyl]-6,6-dimethyl-3-azabicyclo[3.1.0]hexane-2,4-dione; 2,2,2-trifluoroacetic acid]",< 1000 nM

# Continued, values first:
row,IC50,Structure (SMILES)
1,< 1000 nM,"CO[C@H]1CNC[C@H]1Oc1c(C)cc(Cl)cc1-c1ccnc2cc(CN3C(=O)C4C(C3=O)C4(C)C)sc12 (stereo partly drawn) [Example 388, 3-[[7-[5-chloro-2-[(3R,4S)-4-methoxypyrrolidin-3-yl]oxy-3-methyl-phenyl]thieno[3,2-b]pyridin-2-yl]methyl]-6,6-dimethyl-3-azabicyclo[3.1.0]hexane-2,4-dione dihydrochloride]"
2,< 1000 nM,"Cc1cc(Cl)cc(-c2ccnc3cc(CN4C(=O)CCC4=O)sc23)c1O[C@H]1C[C@H]2CN[C@@H]1C2 [Example 220, 1-((7-(2-(((1R,4S,6S)-2-azabicyclo[2.2.1]heptan-6-yl)oxy)-5-chloro-3-methylphenyl)thieno[3,2-b]pyridin-2-yl)methyl)pyrrolidine-2,5-dione]"
3,< 1000 nM,"Cc1cc(Cl)cc(-c2ccnc3cc(CN4C(=O)C5CCC5C4=O)sc23)c1O[C@@H]1CN(C(=O)OC(C)(C)C)C[C@@H]1F (stereo partly drawn) [Example 355, tert-butyl (3R,4S)-3-[4-chloro-2-[2-[(2,4-dioxo-3-azabicyclo[3.2.0]heptan-3-yl)methyl]thieno[3,2-b]pyridin-7-yl]-6-methyl-phenoxy]-4-fluoro-pyrrolidine-1-carboxylate; 2,2,2-trifluoroacetic acid]"
4,< 1000 nM,"Cc1cc(Cl)cc(-c2ccnc3cc(CN4C(=O)C5C(C4=O)C5(C)C)sc23)c1O[C@H]1CCCN[C@H]1C (stereo partly drawn) [Example 363, 3-[[7-[5-chloro-3-methyl-2-[[(2S,3S)-2-methyl-3-piperidyl]oxy]phenyl]thieno[3,2-b]pyridin-2-yl]methyl]-6,6-dimethyl-3-azabicyclo[3.1.0]hexane-2,4-dione; 2,2,2-trifluoroacetic acid]"
5,< 1000 nM,"Cc1cc(Cl)cc(-c2ccnc3cc(CN4C(=O)CCC4=O)sc23)c1O[C@@H]1CN[C@@H](C)C1 [Example 99, 1-((7-(5-Chloro-3-methyl-2-(((3S,5S)-5-methylpyrrolidin-3-yl)oxy)phenyl)thieno[3,2-b]pyridin-2-yl)methyl)pyrrolidine-2,5-dione]"
6,< 1000 nM,"Cc1cc(Cl)cc(-c2ccnc3cc(CN4C(=O)CCC4=O)sc23)c1O[C@@H]1CCN(C)C[C@@H]1C [Example 308, 1-[[7-[5-chloro-2-[[(3S,4R)-1,3-dimethyl-4-piperidyl]oxy]-3-methyl-phenyl]thieno[3,2-b]pyridin-2-yl]methyl]pyrrolidine-2,5-dione]"
7,< 1000 nM,"Cc1cc(Cl)cc(-c2ccnc3cc(CN4C(=O)CC(C)(C)CC4=O)sc23)c1OC1CCNCC1 [Example 258, 1-((7-(5-Chloro-3-methyl-2-(piperidin-4-yloxy)phenyl)thieno[3,2-b]pyridin-2-yl)methyl)-4,4-dimethylpiperidine-2,6-dione]"
8,1000 to 10000 nM,"Cc1cc(Cl)cc(-c2ccnc3cc(CN4C(=O)CN(C)C4=O)sc23)c1O[C@@H]1CNC[C@@H]1F [Example 144, 3-((7-(5-Chloro-2-(((3R,4S)-4-fluoropyrrolidin-3-yl)oxy)-3-methylphenyl)thieno[3,2-b]pyridin-2-yl)methyl)-1-methylimidazolidine-2,4-dione]"
9,< 1000 nM,"Cc1cc(Cl)cc(-c2ccnc3cc(CN4C(=O)C5CC5C4=O)sc23)c1O[C@@H]1C[C@H]2CN[C@@H]1C2 (stereo partly drawn) [Example 315, 3-[[7-[2-[[(1S,4R,5R)-3-azabicyclo[2.2.1]heptan-5-yl]oxy]-5-chloro-3-methyl-phenyl]thieno[3,2-b]pyridin-2-yl]methyl]-3-azabicyclo[3.1.0]hexane-2,4-dione]"
10,1000 to 10000 nM,"Cc1cc(Cl)cc(-c2ccnc3cc(CN4C(=O)CCC4=O)sc23)c1O[C@@H]1CN[C@@H](C(F)F)C1 [Example 125, 1-((7-(5-Chloro-2-(((3S,5R)-5-(difluoromethyl)pyrrolidin-3-yl)oxy)-3-methylphenyl)thieno[3,2-b]pyridin-2-yl)methyl)pyrrolidine-2,5-dione]"

# Same assay, conditions: recombinant full-length USP7 62 pM; ubiquitin-rhodamine 100 nM; 30-minute incubation, 1 hour reaction at room temperature; read-out: Potency (USP7 IC50)
row,IC50,Structure (SMILES)
1,1000 to 10000 nM,"Cc1cc(Cl)cc(-c2ccnc3cc(Cn4c(=O)ccn(CC(F)(F)F)c4=O)sc23)c1OC(C)C [Example 702, 3-[[7-(5-chloro-2-isopropoxy-3-methyl-phenyl)thieno[3,2-b]pyridin-2-yl]methyl]-1-(2,2,2-trifluoroethyl)pyrimidine-2,4-dione]"

# Same assay, conditions: recombinant full-length USP7 62 pM; ubiquitin-rhodamine 100 nM; 30-minute pre-incubation, 1 hour reaction at room temperature; read-out: Potency (USP7 IC50)
row,Structure (SMILES),IC50
1,"Cc1cc(Cl)cc(-c2ncnc3cc(Cn4c(=O)ccn(C(C)C)c4=O)sc23)c1O[C@H]1CCCN(C(C)C)C1 [Example 513, 3-[[4-[5-chloro-2-[[(3S)-1-isopropyl-3-piperidyl]oxy]-3-methyl-phenyl]thieno[3,2-d]pyrimidin-6-yl]methyl]-1-isopropyl-pyrimidine-2,4-dione]",< 1000 nM
2,"Cc1cc(Cl)cc(-c2ccnc3cc(Cn4c(=O)ccn(C)c4=O)sc23)c1OC1CNCCC1(C)C (centres unmarked) [Example 592, 3-[[7-[5-chloro-2-[(4,4-dimethyl-3-piperidyl)oxy]-3-methyl-phenyl]thieno[3,2-b]pyridin-2-yl]methyl]-1-methyl-pyrimidine-2,4-dione]",< 1000 nM
3,"Cc1cc(Cl)cc(-c2ccnc3cc(CN4C(=O)CCC4=O)sc23)c1OC1CC(N)C1 (centres unmarked) [Example 437, 1-[[7-[2-(3-aminocyclobutyoxy)-5-chloro-3-methyl-phenyl]thieno[3,2-b]pyridin-2-yl]methyl]pyrrolidine-2,5-dione; 2,2,2-trifluoroacetic acid]",< 1000 nM
4,"Cc1cc(Cl)cc(-c2ccnc3cc(CN4C(=O)CCC4=O)sc23)c1OC1CC(C)(N)C1 (centres unmarked) [Example 444, 1-[[7-[2-(3-amino-3-methyl-cyclobutoxy)-5-chloro-3-methyl-phenyl]thieno[3,2-b]pyridin-2-yl]methyl]pyrrolidine-2,5-dione dihydrochloride]",< 1000 nM
5,"Cc1cc(Cl)cc(-c2ccnc3cc(Cn4c(=O)ccn(CC(F)(F)F)c4=O)sc23)c1O[C@@H]1CCCN[C@@H]1C [Example 621, 3-[[7-[5-chloro-3-methyl-2-[[(2R,3R)-2-methyl-3-piperidyl]oxy]phenyl]thieno[3,2-b]pyridin-2-yl]methyl]-1-(2,2,2-trifluoroethyl)pyrimidine-2,4-dione; 2,2,2-trifluoroacetic acid]",< 1000 nM
6,"Cc1cc(Cl)cc(-c2ccnc3cc(Cn4c(=O)ccn(C)c4=O)sc23)c1OCC(C)N (centres unmarked) [Example 554, 3-[[7-[2-(2-aminopropoxy)-5-chloro-3-methyl-phenyl]thieno[3,2-b]pyridin-2-yl]methyl]-1-methyl-pyrimidine-2,4-dione; 2,2,2-trifluoroacetic acid]",< 1000 nM
7,"Cc1cc(Cl)cc(-c2ccnc3cc(Cn4c(=O)ccn(CC(F)(F)F)c4=O)sc23)c1O[C@@H]1CNC[C@@H]1F [Example 485, 3-[[7-[5-chloro-2-[(3R,4S)-4-fluoropyrrolidin-3-yl]oxy-3-methyl-phenyl]thieno[3,2-b]pyridin-2-yl]methyl]-1-(2,2,2-trifluoroethyl)pyrimidine-2,4-dione]",< 1000 nM
8,"Cn1ccc(=O)n(Cc2cc3nccc(-c4cc(Cl)cc(C(F)F)c4O[C@H]4CCCNC4)c3s2)c1=O [Example 498, 3-[[7-[5-chloro-3-(difluoromethyl)-2-[[(3S)-3-piperidyl]oxy]phenyl]thieno[3,2-b]pyridin-2-yl]methyl]-1-methyl-pyrimidine-2,4-dione]",< 1000 nM
9,"Cc1cc(Cl)cc(-c2ccnc3cc(CN4C(=O)CCC4=O)sc23)c1O[C@H]1CCCN(C2COC2)C1 [Example 449, 1-[[7-[5-chloro-3-methyl-2-[[(3S)-1-(oxetan-3-yl)-3-piperidyl]oxy]phenyl]thieno[3,2-b]pyridin-2-yl]methyl]pyrrolidine-2,5-dione]",< 1000 nM

# The next lines start with the values.
row,IC50,Structure (SMILES)
1,< 1000 nM,"Cc1cc(Cl)cc(-c2ccnc3cc(Cn4c(=O)ccn(C)c4=O)sc23)c1O[C@@H]1CCCN[C@@H]1C [Example 468, 3-[[7-[5-chloro-3-methyl-2-[[(2R,3R)-2-methyl-3-piperidyl]oxy]phenyl]thieno[3,2-b]pyridin-2-yl]methyl]-1-methyl-pyrimidine-2,4-dione; 2,2,2-trifluoroacetic acid]"
2,< 1000 nM,"Cc1cc(Cl)cc(-c2ccnc3cc(CN4C(=O)CCC4=O)sc23)c1O[C@H]1CC[C@@H](C)NC1 [Example 416, 1-[[7-[5-chloro-3-methyl-2-[[(3S,6R)-6-methyl-3-piperidyl]oxy]phenyl]thieno[3,2-b]pyridin-2-yl]methyl]pyrrolidine-2,5-dione]"
3,< 1000 nM,"Cc1cc(Cl)cc(-c2ccnc3cc(Cn4c(=O)ccn(C(C)C)c4=O)sc23)c1O[C@H]1CCNC[C@@H]1F [Example 563, 3-[[7-[5-chloro-2-[[(3S,4S)-3-fluoro-4-piperidyl]oxy]-3-methyl-phenyl]thieno[3,2-b]pyridin-2-yl]methyl]-1-isopropyl-pyrimidine-2,4-dione]"
4,< 1000 nM,Cc1cc(Cl)cc(-c2ccnc3cc(Cn4c(=O)ccn(C)c4=O)sc23)c1O[C@H]1CCNC[C@H]1C [Example 453]
